For 9 compounds, pA2 results are on record in ChEMBL document CHEMBL1124159, “Synthesis and structure-activity relationships of 2-sulfonamido-1,3,4,6,7,11b alpha-hexahydro-2H-benzo[a]quinolizines as alpha 2-adrenoceptor antagonists” (J Med Chem, 1988).

A word on the pA2: it is a measure of antagonist potency on a negative log scale.

Assay [1] concerns the target T1, Adrenergic receptor alpha-1 (Rattus norvegicus, UniProt P15823+P23944+P43140).
T1 sequence (P15823 whole entry): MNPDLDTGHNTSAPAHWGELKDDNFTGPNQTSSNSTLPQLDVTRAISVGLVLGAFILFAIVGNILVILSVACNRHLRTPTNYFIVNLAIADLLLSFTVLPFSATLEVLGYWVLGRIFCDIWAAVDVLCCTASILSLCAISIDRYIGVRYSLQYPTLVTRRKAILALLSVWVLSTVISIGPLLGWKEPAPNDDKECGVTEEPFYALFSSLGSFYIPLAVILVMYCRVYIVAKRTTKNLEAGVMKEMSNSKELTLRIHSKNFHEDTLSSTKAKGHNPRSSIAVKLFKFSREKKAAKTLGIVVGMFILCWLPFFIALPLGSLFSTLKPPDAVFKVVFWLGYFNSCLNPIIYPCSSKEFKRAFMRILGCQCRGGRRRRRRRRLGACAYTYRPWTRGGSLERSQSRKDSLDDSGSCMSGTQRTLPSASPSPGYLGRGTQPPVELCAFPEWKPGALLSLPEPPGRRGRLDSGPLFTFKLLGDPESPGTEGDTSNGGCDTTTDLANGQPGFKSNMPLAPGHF
T1 sequence (P23944 whole entry): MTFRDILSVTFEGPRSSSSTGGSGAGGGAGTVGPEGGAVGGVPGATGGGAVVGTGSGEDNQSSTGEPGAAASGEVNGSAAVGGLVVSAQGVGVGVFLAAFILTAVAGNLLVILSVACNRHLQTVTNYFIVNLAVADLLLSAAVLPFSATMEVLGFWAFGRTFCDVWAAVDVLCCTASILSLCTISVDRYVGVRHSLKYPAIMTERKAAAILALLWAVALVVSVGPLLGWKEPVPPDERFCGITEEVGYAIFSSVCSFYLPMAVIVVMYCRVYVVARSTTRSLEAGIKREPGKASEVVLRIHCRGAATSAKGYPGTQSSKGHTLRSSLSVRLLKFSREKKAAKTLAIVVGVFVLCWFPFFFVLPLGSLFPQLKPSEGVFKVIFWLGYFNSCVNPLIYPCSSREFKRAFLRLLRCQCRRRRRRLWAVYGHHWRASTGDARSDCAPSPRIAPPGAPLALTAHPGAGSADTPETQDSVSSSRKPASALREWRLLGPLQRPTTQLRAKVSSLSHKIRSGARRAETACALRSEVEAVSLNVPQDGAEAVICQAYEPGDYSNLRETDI
T1 sequence (P43140 whole entry): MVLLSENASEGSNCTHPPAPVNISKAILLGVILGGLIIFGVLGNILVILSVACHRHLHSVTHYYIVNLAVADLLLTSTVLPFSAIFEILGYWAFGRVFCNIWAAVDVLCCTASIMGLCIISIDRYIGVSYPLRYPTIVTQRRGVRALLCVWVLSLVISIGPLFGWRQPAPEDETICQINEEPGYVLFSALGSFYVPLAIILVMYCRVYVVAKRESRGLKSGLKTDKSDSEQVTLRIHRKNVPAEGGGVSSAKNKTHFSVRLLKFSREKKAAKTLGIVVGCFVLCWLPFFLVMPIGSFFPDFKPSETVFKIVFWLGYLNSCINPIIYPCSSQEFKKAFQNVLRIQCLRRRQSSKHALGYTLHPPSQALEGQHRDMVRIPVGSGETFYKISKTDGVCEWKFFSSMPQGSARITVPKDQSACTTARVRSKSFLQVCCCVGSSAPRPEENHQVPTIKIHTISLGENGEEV
In words: Antagonistic activity against alpha-1-adrenoceptor in isolated rat anococcygeus muscle. It is filed as functional, tissue-based, Muscle tissue.

In assay [2] the target is T2, Adrenergic receptor alpha-2 (Rattus norvegicus, UniProt P22086+P19328+P22909).
T2 sequence (P22086 whole entry): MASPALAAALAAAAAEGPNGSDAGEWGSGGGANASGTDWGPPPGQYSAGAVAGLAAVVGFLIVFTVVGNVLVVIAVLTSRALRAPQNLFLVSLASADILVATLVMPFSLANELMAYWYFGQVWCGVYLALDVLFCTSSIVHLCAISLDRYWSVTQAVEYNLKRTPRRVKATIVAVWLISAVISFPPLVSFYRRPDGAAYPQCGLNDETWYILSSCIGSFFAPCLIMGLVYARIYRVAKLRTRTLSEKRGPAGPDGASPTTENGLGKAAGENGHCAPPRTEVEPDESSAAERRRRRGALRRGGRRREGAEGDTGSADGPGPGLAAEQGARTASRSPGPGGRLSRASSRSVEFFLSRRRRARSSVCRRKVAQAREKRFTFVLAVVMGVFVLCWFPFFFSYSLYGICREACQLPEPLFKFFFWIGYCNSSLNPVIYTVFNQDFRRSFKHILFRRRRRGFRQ
T2 sequence (P19328 whole entry): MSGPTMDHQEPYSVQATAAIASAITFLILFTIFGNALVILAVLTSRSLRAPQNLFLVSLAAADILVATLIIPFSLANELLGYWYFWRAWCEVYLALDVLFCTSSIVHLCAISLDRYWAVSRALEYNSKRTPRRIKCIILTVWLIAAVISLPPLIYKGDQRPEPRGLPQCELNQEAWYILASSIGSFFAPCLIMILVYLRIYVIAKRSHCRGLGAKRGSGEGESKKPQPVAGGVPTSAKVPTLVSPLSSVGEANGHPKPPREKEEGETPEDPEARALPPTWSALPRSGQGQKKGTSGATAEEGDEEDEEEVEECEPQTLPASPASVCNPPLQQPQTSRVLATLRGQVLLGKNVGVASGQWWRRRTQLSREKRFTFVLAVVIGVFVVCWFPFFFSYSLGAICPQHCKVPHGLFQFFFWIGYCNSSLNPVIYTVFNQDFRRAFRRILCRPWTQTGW
T2 sequence (P22909 whole entry): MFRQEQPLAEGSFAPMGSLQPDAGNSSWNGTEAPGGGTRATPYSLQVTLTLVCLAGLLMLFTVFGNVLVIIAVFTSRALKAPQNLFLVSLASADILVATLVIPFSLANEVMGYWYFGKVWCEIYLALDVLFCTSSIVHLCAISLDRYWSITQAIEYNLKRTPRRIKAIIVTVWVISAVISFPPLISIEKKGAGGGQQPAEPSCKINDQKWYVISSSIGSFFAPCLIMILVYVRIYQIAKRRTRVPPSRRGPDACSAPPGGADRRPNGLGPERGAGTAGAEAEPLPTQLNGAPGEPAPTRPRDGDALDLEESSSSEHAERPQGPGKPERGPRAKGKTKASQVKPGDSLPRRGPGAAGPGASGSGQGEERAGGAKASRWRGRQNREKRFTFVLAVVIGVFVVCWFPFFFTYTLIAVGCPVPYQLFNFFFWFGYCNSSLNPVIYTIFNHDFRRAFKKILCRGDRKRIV
In words: Antagonistic activity against alpha-2 adrenergic receptor in rat vas deferens. It is filed as functional, tissue-based.

Assay [3] addresses T1, Adrenergic receptor alpha-1. In words: Antagonistic activity against alpha-1 adrenergic receptor in rat anococcygeus muscle.
Assay [4] shares this target. Kind of assay: Antagonistic activity against alpha-1 adrenergic receptor in isolated rat anococcygeus muscle. The class given is functional, tissue-based.

As for `CS(=O)(=O)N[C@@H]1CCN2CCc3ccccc3[C@@H]2C1`, the values for the pA2 in assay [1] and in assay [2] were 5.33 and 6.27, respectively.
`CCCS(=O)(=O)N(C)[C@@H]1CCN2CCc3ccccc3[C@@H]2C1` (stereo in doubt): the figures for the pA2 in assay [3] and in assay [2] were 7.2 and 8.5, respectively.
On the same counts, the results for `CC(C)CS(=O)(=O)N(C)[C@@H]1CCN2CCc3ccccc3[C@@H]2C1` (stereo in doubt) are 6.9 and 8.05.
Regarding `CN([C@@H]1CCN2CCc3ccccc3[C@@H]2C1)S(=O)(=O)c1ccccc1`, the pA2 in assay [4] is 7.05; in assay [2] it was 8.44.
In the same order, the values of `CCCCS(=O)(=O)N(C)[C@@H]1CCN2CCc3ccccc3[C@@H]2C1` are 6.6 and 7.87.
In the same order, the values of `Cc1ccccc1S(=O)(=O)N(C)[C@@H]1CCN2CCc3ccccc3[C@@H]2C1` are 6.27 and 7.87.
As for `CCN([C@@H]1CCN2CCc3ccccc3[C@@H]2C1)S(=O)(=O)CC(C)C`, the values for the pA2 in assay [4] and in assay [2] were 6.65 and 7.61, respectively.
In the same order, the values of `CCCS(=O)(=O)N(C)[C@H]1CCN2CCc3ccccc3[C@H]2C1` are 5.8 and 7.1.
On the same counts, the results for `CCCN([C@@H]1CCN2CCc3ccccc3[C@@H]2C1)S(C)(=O)=O` are 6.44 and 6.77.
